± gives the expanded uncertainty stated by the source.
Assays:
[1] = xn = mol fraction of the nth substance listed; settings: 101.3 kPa, Liquid, x2 = 0; for speed of sound: Sing-around technique in a fixed-path interferometer; for mass density: Vibrating tube method
[2] = refractive index (Na D-line) (dimensionless); xn = mol fraction of the nth substance listed; settings: 101.3 kPa, Liquid, Standard Abbe refractometry, x2 = 0
[3] = 101.3 kPa, Liquid; for speed of sound: Sing-around technique in a fixed-path interferometer; for mass density: Vibrating tube method
[4] = refractive index (Na D-line) (dimensionless); settings: 101.33 kPa, Liquid, Standard Abbe refractometry

| Compound | speed of sound ([3]; 293.15 K) [m/s] | mass density ([3]; 293.15 K) [kg/m3] | speed of sound ([3]; 303.15 K) [m/s] | mass density ([3]; 303.15 K) [kg/m3] | speed of sound ([3]; 313.15 K) [m/s] | mass density ([3]; 313.15 K) [kg/m3] | speed of sound ([3]; 323.15 K) [m/s] | mass density ([3]; 323.15 K) [kg/m3] | speed of sound ([3]; 333.15 K) [m/s] | mass density ([3]; 333.15 K) [kg/m3] | speed of sound ([3]; 343.15 K) [m/s] | mass density ([3]; 343.15 K) [kg/m3] | refractive index ([4]; 293.15 K) | refractive index ([4]; 303.15 K) | refractive index ([4]; 313.15 K) | refractive index ([4]; 323.15 K) | refractive index ([4]; 333.15 K) | refractive index ([4]; 343.15 K) | other results |
| --- | --- | --- | --- | --- | --- | --- | --- | --- | --- | --- | --- | --- | --- | --- | --- | --- | --- | --- | --- |
| CCCCCCCCCCCC [dodecane] + c1ccc2c(c1)CCCC2 |  |  |  |  |  |  |  |  |  |  |  |  |  |  |  |  |  |  | speed of sound ([1]; 293.15 K): 1297.9 ± 1.2 m/s; mass density ([1]; 293.15 K): 748.92 ± 0.24 kg/m3; speed of sound ([1]; 303.15 K): 1259.5 ± 1.2 m/s; mass density ([1]; 303.15 K): 741.66 ± 0.24 kg/m3; speed of sound ([1]; 313.15 K): 1221.6 ± 1.2 m/s; mass density ([1]; 313.15 K): 734.38 ± 0.24 kg/m3; speed of sound ([1]; 323.15 K): 1184.4 ± 1.2 m/s; mass density ([1]; 323.15 K): 727.07 ± 0.24 kg/m3; speed of sound ([1]; 333.15 K): 1147.8 ± 1.2 m/s; mass density ([1]; 333.15 K): 719.73 ± 0.24 kg/m3; speed of sound ([1]; 343.15 K): 1111.8 ± 1.2 m/s; mass density ([1]; 343.15 K): 712.34 ± 0.25 kg/m3; refractive index ([2]; 293.15 K): 1.42218 ± 0.00037; refractive index ([2]; 303.15 K): 1.41784 ± 0.00037; refractive index ([2]; 313.15 K): 1.41346 ± 0.00037; refractive index ([2]; 323.15 K): 1.40914 ± 0.00037; refractive index ([2]; 333.15 K): 1.40479 ± 0.00037; refractive index ([2]; 343.15 K): 1.40018 ± 0.00037 |
| c1ccc2c(c1)CCCC2 [1,2,3,4-tetrahydronaphthalene] | 1489.5 ± 1.3 | 969.52 ± 0.23 | 1450.1 ± 1.2 | 961.59 ± 0.23 | 1411.5 ± 1.2 | 953.66 ± 0.23 | 1373.6 ± 1.2 | 945.72 ± 0.23 | 1336.4 ± 1.2 | 937.77 ± 0.23 | 1299.8 ± 1.2 | 929.8 ± 0.23 | 1.54155 ± 0.00037 | 1.53687 ± 0.00037 | 1.53216 ± 0.00037 | 1.52752 ± 0.00037 | 1.52274 ± 0.00037 | 1.51795 ± 0.00037 |  |
| CCCCCCCCCCCC [dodecane] | 1297.9 ± 1.2 | 748.92 ± 0.24 | 1259.5 ± 1.2 | 741.66 ± 0.24 | 1221.6 ± 1.2 | 734.38 ± 0.24 | 1184.4 ± 1.2 | 727.07 ± 0.24 | 1147.8 ± 1.2 | 719.73 ± 0.24 | 1111.8 ± 1.2 | 712.34 ± 0.25 | 1.42218 ± 0.00037 | 1.41784 ± 0.00037 | 1.41346 ± 0.00037 | 1.40914 ± 0.00037 | 1.40479 ± 0.00037 | 1.40018 ± 0.00037 |  |
